The source of these data is patent publication US10487092B2, “Pyrazolopyridinamines as MKNK1 and MKNK2 inhibitors” (BAYER PHARMA AKTIENGESELLSCHAFT, priority 2014, dated 2019).

Usually IC50 stands for the concentration at which inhibition is half-maximal.

This assay deals with human full-length MKNK1 (Homo sapiens (Human), UniProt Q9BUB5, T344D). The assay can be described thus: MKNK1 kinase high ATP assay (TR-FRET). As to conditions: high ATP (2 mM), 15 min preincubation with enzyme; read-out: MKNK1 IC50. It counts as biochemical. How it is done: MKNK1 Kinase High ATP Assay
human full-length MKNK1, sequence (Q9BUB5 other isoform, or with tags, fused parts or gaps T344D): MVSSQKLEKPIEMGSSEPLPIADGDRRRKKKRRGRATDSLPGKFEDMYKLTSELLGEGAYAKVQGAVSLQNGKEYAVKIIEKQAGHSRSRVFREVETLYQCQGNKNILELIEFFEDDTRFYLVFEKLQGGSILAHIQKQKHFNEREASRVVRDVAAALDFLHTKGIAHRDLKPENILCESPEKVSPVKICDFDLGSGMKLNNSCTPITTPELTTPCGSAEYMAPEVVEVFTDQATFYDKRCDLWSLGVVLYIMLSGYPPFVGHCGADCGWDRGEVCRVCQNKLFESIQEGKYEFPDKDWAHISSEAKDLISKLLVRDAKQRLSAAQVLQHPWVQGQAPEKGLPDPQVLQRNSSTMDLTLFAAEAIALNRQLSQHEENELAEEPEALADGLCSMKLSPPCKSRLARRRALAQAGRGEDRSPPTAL
MKNK1-inhibitory activity at high ATP of compounds of the present invention after their preincubation with MKNK1 was quantified employing the TR-FRET-based MKNK1 high ATP assay as described in the following paragraphs.
A recombinant fusion protein of Glutathione-S-Transferase (GST, N-terminally) and human full-length MKNK1 (amino acids 1-424 and T344D of accession number BAA 19885.1), expressed in insect cells using baculovirus expression system and purified via glutathione sepharose affinity chromatography, was purchased from Carna Biosciences (product no 02-145) and used as enzyme. As substrate for the kinase reaction the biotinylated peptide biotin-Ahx-IKKRKLTRRKSLKG (SEQ ID NO: 1, C-terminus in amide form) was used, which can be purchased e.g. from the company Biosyntan (Berlin-Buch, Germany).
For the assay 50 nL of a 100 fold concentrated solution of the test compound in DMSO was pipetted into a black low volume 384 well microtiter plate (Greiner Bio-One, Frickenhausen, Germany), 2 μL of a solution of MKNK1 in aqueous assay buffer [50 mM HEPES pH 7.5, 5 mM MgCl2, 1.0 mM dithiothreitol, 0.005% (v/v) Nonidet-P40 (Sigma)] was added and the mixture was incubated for 15 min at 22° C. to allow pre-binding of the test compounds to the enzyme before the start of the kinase reaction. Then the kinase reaction was started by the addition of 3 μL of a solution of adenosine-tri-phosphate (ATP, 3.3 mM=>final conc. in the 5 μL assay volume is 2 mM) and substrate (0.1 μM=>final conc. in the 5 μL assay volume is 0.06 μM) in assay buffer and the resulting mixture was incubated for a reaction time of 30 min at 22° C. The concentration of MKNK1 was adjusted depending of the activity of the enzyme lot and was chosen appropriate to have the assay in the linear range, typical concentrations were in the range of 0.003 μg/mL. The reaction was stopped by the addition of 5 μL of a solution of TR-FRET detection reagents (5 nM streptavidine-XL665 [Cisbio Bioassays, Codolet, France] and 1 nM anti-ribosomal protein S6 (pSer236)-antibody from Invitrogen [#44921G] and 1 nM LANCE EU-W1024 labeled ProteinG [Perkin-Elmer, product no. AD0071]) in an aqueous EDTA-solution (100 mM EDTA, 0.1% (w/v) bovine serum albumin in 50 mM HEPES pH 7.5).
The resulting mixture was incubated for 1 h at 22° C. to allow the formation of complex between the phosphorylated biotinylated peptide and the detection reagents. Subsequently the amount of phosphorylated substrate was evaluated by measurement of the resonance energy transfer from the Eu-chelate to the streptavidine-XL. Therefore, the fluorescence emissions at 620 nm and 665 nm after excitation at 350 nm were measured in a TR-FRET reader, e.g. a Rubystar (BMG Labtechnologies, Offenburg, Germany) or a Viewlux (Perkin-Elmer). The ratio of the emissions at 665 nm and at […] was taken as the measure for the amount of phosphorylated substrate. The data were normalised (enzyme reaction without inhibitor=0% inhibition, all other assay components but no enzyme=100% inhibition).
Take `CN(CCNC(=O)OC(C)(C)C)C(=O)[C@H]1CCc2c(sc3ncnc(Nc4ccn5nccc5c4)c23)C1` [Example 25, tert-Butyl [2-(methyl{[(7S)-4-(pyrazolo[1,5-a]pyridin-5-ylamino)-5,6,7,8-tetrahydro[1]benzothieno[2,3-d]pyrimidin-7-yl]carbonyl}amino)ethyl]carbamate]: the IC50 came to 13 nM.

`COc1cn2nccc2cc1Nc1ncnc2sc3c(c12)CC[C@H](C(=O)Nc1cccc(F)c1)C3` [Example 92, (7S)—N-(3-Fluorophenyl)-4-[(6-methoxypyrazolo[1,5-a]pyridin-5-yl)amino]-5,6,7,8-tetrahydro[1]benzothieno[2,3-d]pyrimidine-7-carboxamide]: the IC50 is 7 nM.

With `N#CC1CN(C(=O)[C@H]2CCc3c(sc4ncnc(Nc5ccn6nccc6c5)c34)C2)C1` [Example 22, 1-{[(7S)-4-(Pyrazolo[1,5-a]pyridin-5-ylamino)-5,6,7,8-tetrahydro[1]benzothieno[2,3-d]pyrimidin-7-yl]carbonyl}azetidine-3-carbonitrile], the half-inhibitory concentration (IC50) stood at 21 nM.

Turning to `CN(C)C(=O)[C@H]1CCc2c(sc3ncnc(Nc4cc5ccnn5cc4Cl)c23)C1` [Example 45, (7S)-4-[(6-Chloropyrazolo[1,5-a]pyridin-5-yl)amino]-N,N-dimethyl-5,6,7,8-tetrahydro[1]benzothieno[2,3-d]pyrimidine-7-carboxamide], the IC50 is 12 nM.

With `COc1cn2nccc2cc1Nc1ncnc2sc3c(c12)CC[C@H](C(=O)N(CCO)CCCN(C)C)C3` [Example 111, (7S)—N-[3-(Dimethylamino)propyl]-N-(2-hydroxyethyl)-4-[(6-methoxypyrazolo[1,5-a]pyridin-5-yl)amino]-5,6,7,8-tetrahydro[1]benzothieno[2,3-d]pyrimidine-7-carboxamide], the IC50 is 3 nM.

Turning to `CN(C)C1CCN(C(=O)[C@H]2CCc3c(sc4ncnc(Nc5cc6ccnn6cc5Cl)c34)C2)CC1` [Example 61, (7S)-4-[(6-Chloropyrazolo[1,5-a]pyridin-5-yl)amino]-5,6,7,8-tetrahydro[1]benzothieno[2,3-d]pyrimidin-7-yl[4-(dimethylamino)piperidin-1-yl]methanone], the IC50 was 13 nM.

`C[C@@H]1CN(C(=O)[C@H]2CCc3c(sc4ncnc(Nc5cc6ccnn6cc5Cl)c34)C2)C[C@H](C)O1` [Example 64, (7S)-4-[(6-Chloropyrazolo[1,5-a]pyridin-5-yl)amino]-5,6,7,8-tetrahydro[1]benzothieno[2,3-d]pyrimidin-7-yl[(2R,6S)-2,6-dimethylmorpholin-4-yl]methanone]: the IC50 came to 10 nM.

For `COc1cn2nccc2cc1Nc1ncnc2sc3c(c12)CC[C@H](C(=O)N(C)C(C)C)C3` [Example 105, (7S)-4-[(6-Methoxypyrazolo[1,5-a]pyridin-5-yl)amino]-N-methyl-N-(propan-2-yl)-5,6,7,8-tetrahydro[1]benzothieno[2,3-d]pyrimidine-7-carboxamide], the IC50 was found to be 2 nM.

`C[C@H]1COCCN1C(=O)[C@H]1CCc2c(sc3ncnc(Nc4cc5ccnn5cc4Cl)c23)C1` [Example 76, (7S)-4-[(6-Chloropyrazolo[1,5-a]pyridin-5-yl)amino]-5,6,7,8-tetrahydro[1]benzothieno[2,3-d]pyrimidin-7-yl[(3S)-3-methylmorpholin-4-yl]methanone]: the IC50 was determined as 7 nM.

`COc1cn2nccc2cc1Nc1ncnc2sc3c(c12)CC[C@H](C(=O)N1CCN(CCN(C)C)CC1)C3` [Example 114, 4-[2-(Dimethylamino)ethyl]piperazin-1-yl(7S)-4-[(6-methoxypyrazolo[1,5-a]pyridin-5-yl)amino]-5,6,7,8-tetrahydro[1]benzothieno[2,3-d]pyrimidin-7-ylmethanone]: the IC50 is less than 1 nM.

As for `COc1cn2nccc2cc1Nc1ncnc2sc3c(c12)CC[C@H](C(=O)N1CCOC[C@H]1C)C3` [Example 126, (7S)-4-[(6-Methoxypyrazolo[1,5-a]pyridin-5-yl)amino]-5,6,7,8-tetrahydro[1]benzothieno[2,3-d]pyrimidin-7-yl[(3R)-3-methylmorpholin-4-yl]methanone], the IC50 amounted to 1 nM.

In the case of `CC(C)N(C)C(=O)[C@H]1CCc2c(sc3ncnc(Nc4cc5ccnn5cc4Cl)c23)C1` [Example 57, (7S)-4-[(6-Chloropyrazolo[1,5-a]pyridin-5-yl)amino]-N-methyl-N-(propan-2-yl)-5,6,7,8-tetrahydro[1]benzothieno[2,3-d]pyrimidine-7-carboxamide], the IC50 was determined as 12 nM.

Turning to `O=C([C@H]1CCc2c(sc3ncnc(Nc4ccn5nccc5c4)c23)C1)N1CCOCC1` [Example 11, Morpholin-4-yl[(7S)-4-(pyrazolo[1,5-a]pyridin-5-ylamino)-5,6,7,8-tetrahydro[1]benzothieno[2,3-d]pyrimidin-7-yl]methanone], the IC50 came out at 62 nM.

Regarding `C[C@@H]1COC[C@H](C)N1C(=O)[C@H]1CCc2c(sc3ncnc(Nc4ccn5nccc5c4)c23)C1` [Example 13, [(3R,5S)-3,5-Dimethylmorpholin-4-yl][(7S)-4-(pyrazolo[1,5-a]pyridin-5-ylamino)-5,6,7,8-tetrahydro[1]benzothieno[2,3-d]pyrimidin-7-yl]methanone], the IC50 worked out at 17 nM.

Turning to `CN(CC(F)F)C(=O)[C@H]1CCc2c(sc3ncnc(Nc4ccn5nccc5c4)c23)C1` [Example 18, (7S)—N-(2,2-Difluoroethyl)-N-methyl-4-(pyrazolo[1,5-a]pyridin-5-ylamino)-5,6,7,8-tetrahydro[1]benzothieno[2,3-d]pyrimidine-7-carboxamide], the IC50 worked out at 19 nM.

In the case of `O=C([C@H]1CCc2c(sc3ncnc(Nc4ccn5nccc5c4)c23)C1)N1C[C@H]2C[C@@H]1CO2` [Example 37, (1R,4R)-2-Oxa-5-azabicyclo[2.2.1]hept-5-yl[(7S)-4-(pyrazolo[1,5-a]pyridin-5-ylamino)-5,6,7,8-tetrahydro[1]benzothieno[2,3-d]pyrimidin-7-yl]methanone], the IC50 worked out at 56 nM.

On to `COc1cn2nccc2cc1Nc1ncnc2sc3c(c12)CC[C@H](C(=O)N1C[C@H]2C[C@@H]1CO2)C3` [Example 124, (7S)-4-[(6-Methoxypyrazolo[1,5-a]pyridin-5-yl)amino]-5,6,7,8-tetrahydro[1]benzothieno[2,3-d]pyrimidin-7-yl[(1R,4R)-2-oxa-5-azabicyclo[2.2.1]hept-5-yl]methanone], for which the IC50 was found to be 1 nM.

For the molecule `COc1cn2nccc2cc1Nc1ncnc2sc3c(c12)CC[C@H](C(=O)NCCN(C)C)C3` [Example 82, (7S)—N-[2-(Dimethylamino)ethyl]-4-[(6-methoxypyrazolo[1,5-a]pyridin-5-yl)amino]-5,6,7,8-tetrahydro[1]benzothieno[2,3-d]pyrimidine-7-carboxamide], the IC50 is 3 nM.

For `CC(C)N(C)C(=O)[C@H]1CCc2c(sc3ncnc(Nc4ccn5nccc5c4)c23)C1` [Example 16, (7S)—N-Isopropyl-N-methyl-4-(pyrazolo[1,5-a]pyridin-5-ylamino)-5,6,7,8-tetrahydro[1]benzothieno[2,3-d]pyrimidine-7-carboxamide], the IC50 turned out to be 19 nM.

Turning to `CN1C[C@@H]2C[C@H]1CN2C(=O)[C@H]1CCc2c(sc3ncnc(Nc4ccn5nccc5c4)c23)C1` [Example 38, [(1S,4S)-5-Methyl-2,5-diazabicyclo[2.2.1]hept-2-yl][(7S)-4-(pyrazolo[1,5-a]pyridin-5-ylamino)-5,6,7,8-tetrahydro[1]benzothieno[2,3-d]pyrimidin-7-yl]methanone], the IC50 was 25 nM.
